Measurements published in patent US7754772B2, “Nitrosated nonsteroidal antiinflammatory compounds, compositions and methods of use” (NicOx, S.A., priority 2002, dated 2010).

Key:
[1] = system: Male Sprague Dawley rats, gastric hemorrhagic lesion; experiment: rat gastric lesion test; conditions: rat fasted 24 hours, oral gavage, lesion score (summed length, mm) three hours after dosing; ratio relative to parent NSAID (Naproxen = 1)
Protocol: Male Sprague Dawley rats (Charles River Laboratories, Wilmington, Mass.) weighing 230-250 g were used for the experiments. The rats were housed with laboratory chow and water ad libitum prior to the study. The rats were fasted for 24 hours with free access to water and then dosed by oral gavage with vehicle or with test compounds given at a volume of 0.5 mL/100 g. […] Rats were euthanized by CO2 three hours after dosing. The stomachs were dissected along the greater curvature, washed with a directed stream of 0.9% saline and pinned open on a sylgard based petri dish for examination of the hemorrhagic lesion. Gastric lesion score was expressed in mm and calculated by summing the length of each lesion.

In the case of `COc1ccc2cc([C@H](C)C(=O)OCCSCCO[N+](=O)[O-])ccc2c1` [Example 1, 2-(2-(Nitrooxy)ethylthio)ethyl (2S)-2-(6-methoxy(2-naphthyl))propanoate], the “Relative Activity Gastric Lesion” value [1] is reported as 0.32 and the melting point is reported as 33 to 37 °C.
With `COc1ccc2cc([C@H](C)C(=O)OCC(=O)COC(=O)c3ccc(CO[N+](=O)[O-])cc3)ccc2c1` [Example 11, 3-(4-((Nitrooxy)methyl)phenylcarbonyloxy)-2-oxopropyl (2S)-2-(6-methoxy(2-naphthyl))propanoate] the melting point was 105 to 107 °C.
In the case of `COc1ccc2cc([C@H](C)C(=O)OCC(CO[N+](=O)[O-])(CO[N+](=O)[O-])[N+](=O)[O-])ccc2c1` [Example 13, 2-Nitro-3-(nitrooxy)-2-((nitrooxy)methyl)propyl (2S)-2-(6-methoxy(2-naphthyl))propanoate], the “Relative Activity Gastric Lesion” value [1] is reported as 0.55 and the melting point is reported as 69 to 71 °C.
With `COc1ccc2cc([C@H](C)C(=O)OCCOC(=O)NCCO[N+](=O)[O-])ccc2c1` [Example 14, 2-(N-(2-(Nitrooxy)ethyl)carbamoyloxy)ethyl (2S)-2-(6-methoxy(2-naphthyl))propanoate] the “Relative Activity Gastric Lesion” value [1] was 0.15 and the melting point was 56 to 57 °C.
Work on `COc1ccc2cc([C@H](C)C(=O)OCC(=O)N(C)CCO[N+](=O)[O-])ccc2c1` [Example 17, (N-Methyl-N-(2-(nitrooxy)ethyl)carbamoyl)methyl (2S)-2-(6-methoxy(2-naphthyl))propanoate] yielded a melting point of 80 to 81 °C.
With `CCN(CCO[N+](=O)[O-])C(=O)COC(=O)[C@@H](C)c1ccc2cc(OC)ccc2c1` [Example 18, (N-Ethyl-N-(2-(nitrooxy)ethyl)carbamoyl)methyl (2S)-2-(6-methoxy(2-naphthyl))propanoate] the “Relative Activity Gastric Lesion” value [1] was 0.25 and the melting point was 60 to 61 °C.
For `COc1ccc2cc([C@H](C)C(=O)OCC(=O)N(C)CC(=O)OCCO[N+](=O)[O-])ccc2c1` [Example 20, (N-Methyl-N-(((2-(nitrooxy)ethyl)oxycarbonyl)methyl)carbamoyl)methyl (2S)-2-(6-methoxy(2-naphthyl))propanoate], the “Relative Activity Gastric Lesion” value [1] was 0.03 and the melting point was 71 to 73 °C.
For `COc1ccc2cc([C@H](C)C(=O)OCC(=O)N(C)CC(=O)OCCCO[N+](=O)[O-])ccc2c1` [Example 21, (N-Methyl-N-(((3-(nitrooxy)propyl)oxycarbonyl)methyl)carbamoyl)methyl (2S)-2-(6-methoxy(2-naphthyl))propanoate], the “Relative Activity Gastric Lesion” value [1] was 0.19 and the melting point was 41 to 43 °C.
Work on `COc1ccc2cc([C@H](C)C(=O)OCC(=O)N(C)CC(=O)NCCO[N+](=O)[O-])ccc2c1` [Example 22, (N-Methyl-N-((N-(2-(nitrooxy)ethyl)carbamoyl)methyl)carbamoyl)methyl (2S)-2-(6-methoxy(2-naphthyl))propanoate] yielded a melting point of 79 to 81 °C.
`COc1ccc2cc(C(C)C(=O)OCC(=O)OCCO[N+](=O)[O-])ccc2c1` (stereo not shown) [Example 23, ((2-(Nitrooxy)ethyl)oxycarbonyl)methyl 2-(6-methoxy-2-naphthyl)propanoate] showed a melting point of 44 to 45 °C.
With `COc1ccc2cc(C(C)C(=O)OCC(=O)NCCCO[N+](=O)[O-])ccc2c1` (stereo not shown) [Example 24, (N-(3-(Nitrooxy)propyl)carbamoyl)methyl 2-(6-methoxy-2-naphthyl)propanoate] the melting point was 51 to 53 °C.
In the case of `COc1ccc2cc([C@H](C)C(=O)OC[C@@H](CO[N+](=O)[O-])O[N+](=O)[O-])ccc2c1` [Example 27c, (2S)-2,3-Bis(nitrooxy)propyl (2S)-2-(6-methoxy(2-naphthyl))propanoate], the “Relative Activity Gastric Lesion” value [1] is reported as 0.20.
In the case of `COc1ccc2cc([C@H](C)C(=O)OCC(=O)COC(=O)Cc3ccc(CO[N+](=O)[O-])cc3)ccc2c1` [Example 30, 3-(2-(4-((Nitrooxy)methyl)phenyl)acetyloxy)-2-oxopropyl (2S)-2-(6-methoxy(2-naphthyl))propanoate], the melting point is reported as 92 to 95 °C.
For `COc1ccc2cc([C@H](C)C(=O)Oc3ccc(C(=O)OCCO[N+](=O)[O-])cc3)ccc2c1` [Example 32, 4-((2-(Nitrooxy)ethyl)oxycarbonyl)phenyl (2S)-2-(6-methoxy(2-naphthyl))propanoate], the “Relative Activity Gastric Lesion” value [1] was 0.06.
For `COc1ccc2cc([C@H](C)C(=O)OCC(=O)N(C)CCCO[N+](=O)[O-])ccc2c1` [Example 34, (N-methyl-N-(3-(nitrooxy)propyl)carbamoyl)methyl (2S)-2-(6-methoxy(2-naphthyl))propanoate], the “Relative Activity Gastric Lesion” value [1] was 0.02 and the melting point was 104 to 105 °C.
In the case of `COc1ccc2cc([C@H](C)C(=O)OCCOC(=O)C(=O)OCCCO[N+](=O)[O-])ccc2c1` [Example 40, 2-((2S)-2-(6-Methoxy(2-naphthyl))propanoyloxy)ethyl 3-(nitrooxy)-propyl ethane-1,2-dioate], the melting point is reported as 55 to 58 °C.
Work on `COc1ccc2cc([C@H](C)C(=O)NNC(=O)CCCO[N+](=O)[O-])ccc2c1` [Example 41, N-((2S)-2-(6-Methoxy(2-naphthyl))propanoylamino)-4 (nitrooxy)butanamide] yielded a melting point of 117 to 119 °C.
With `COc1ccc2cc([C@H](C)C(=O)OCCN(C)C(=O)c3ccc(CO[N+](=O)[O-])cc3)ccc2c1` [Example 45, 2-(N-Methyl(4-((nitrooxy)methyl)phenyl)carbonylamino)ethyl (2S)-2-(6-methoxy(2-naphthyl))propanoate] the melting point was 108 to 115 °C.
`COc1ccc2c(c1)c(CC(=O)O[C@H]1CO[C@H]3[C@H]1OC[C@H]3O[N+](=O)[O-])c(C)n2C(=O)c1ccc(Cl)cc1` [Example 46, (1S,2S,5S,6R)-6-(Nitrooxy)-4,8-dioxabicyclo(3.3.0)oct-2-yl 2-(1-((4 chlorophenyl)carbonyl)-5-methoxy-2-methylindol-3-yl)acetate] gave a melting point of 159 to 160 °C.
For `COc1ccc2cc([C@H](C)C(=O)OCCN(CCO[N+](=O)[O-])S(=O)(=O)c3ccc(C)cc3)ccc2c1` [Example 48, 2-(((4-Methylphenyl)sulfonyl)(2-(nitrooxy)ethyl)amino)ethyl (2S)-2-(6-methoxy(2-naphthyl))propanoate], the melting point was 92 to 95 °C.
`COc1ccc2cc([C@H](C)C(=O)SCCCCO[N+](=O)[O-])ccc2c1` [Example 54, (2S)-2-(6-methoxy(2-naphthyl))-1-(4-(nitrooxy)butylthio)propan-1-one] showed a melting point of 30 to 35 °C.
In the case of `COc1ccc2c(c1)c(CC(=O)OCC(=O)NCCO[N+](=O)[O-])c(C)n2C(=O)c1ccc(Cl)cc1` [Example 56, (N-(2-(Nitrooxy)ethyl)carbamoyl)methyl 2-(1-((4-chlorophenyl)carbonyl)-5-methoxy-2-methylindol-3-yl)acetate], the melting point is reported as 128 to 129 °C.
Work on `O=C(COC(=O)Cc1ccccc1Nc1c(Cl)cccc1Cl)NCCO[N+](=O)[O-]` [Example 57, (N-(2-(Nitrooxy)ethyl)carbamoyl)methyl 2-(2-((2,6-dichlorophenyl)amino)phenyl)acetate] yielded a melting point of 81 to 83 °C.
With `COc1ccc2cc([C@H](C)C(=O)O)ccc2c1` [Naproxen, (2S)-2-(6-methoxy(2-naphthyl))propanoic acid, reference compound] the “Relative Activity Gastric Lesion” value [1] was 1.
